The record followed here is US11541050B2, “Pyrimidine derivatives for the treatment of viral infections” (JANSSEN SCIENCES IRELAND UC, priority 2011, dated 2023).

pEC50: −log10 of the molar value. Bounds are passed on as bounds.

Assay [1] deals with T1, human TLR8 (wild type sequence) (Homo sapiens, UniProt Q9NR97).
T1 construct: expressed in transfected cells; host or cells: HEK293
T1 sequence (Q9NR97 27-1041): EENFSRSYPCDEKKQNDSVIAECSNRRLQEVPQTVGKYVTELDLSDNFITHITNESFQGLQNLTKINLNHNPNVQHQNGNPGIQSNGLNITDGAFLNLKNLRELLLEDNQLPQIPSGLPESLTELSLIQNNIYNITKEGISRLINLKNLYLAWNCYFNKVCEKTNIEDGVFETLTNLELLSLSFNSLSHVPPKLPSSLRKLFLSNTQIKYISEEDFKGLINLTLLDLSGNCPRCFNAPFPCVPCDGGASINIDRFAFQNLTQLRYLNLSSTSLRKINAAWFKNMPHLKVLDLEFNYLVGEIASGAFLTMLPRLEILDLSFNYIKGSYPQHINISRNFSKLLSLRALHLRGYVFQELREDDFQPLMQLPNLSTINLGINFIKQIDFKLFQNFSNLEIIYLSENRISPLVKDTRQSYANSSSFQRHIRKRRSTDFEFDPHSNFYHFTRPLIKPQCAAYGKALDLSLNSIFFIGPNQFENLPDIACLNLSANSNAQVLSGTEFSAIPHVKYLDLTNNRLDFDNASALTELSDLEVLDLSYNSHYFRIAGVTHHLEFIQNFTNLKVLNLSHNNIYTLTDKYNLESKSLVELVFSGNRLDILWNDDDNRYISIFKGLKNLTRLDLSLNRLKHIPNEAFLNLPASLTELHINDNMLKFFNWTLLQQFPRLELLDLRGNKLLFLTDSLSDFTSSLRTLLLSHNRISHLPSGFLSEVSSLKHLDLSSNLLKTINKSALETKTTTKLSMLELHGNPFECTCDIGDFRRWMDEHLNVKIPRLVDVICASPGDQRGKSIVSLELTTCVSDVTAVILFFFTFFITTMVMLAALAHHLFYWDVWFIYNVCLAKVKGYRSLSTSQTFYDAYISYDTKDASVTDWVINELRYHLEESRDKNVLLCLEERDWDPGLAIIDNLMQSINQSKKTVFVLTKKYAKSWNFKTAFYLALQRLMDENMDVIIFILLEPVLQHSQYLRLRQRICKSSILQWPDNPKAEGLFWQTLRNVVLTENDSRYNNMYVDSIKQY
Nature of the assay: TLR8 cellular NFκB-luc reporter assay, wild type TLR8. It is filed as cell-based. Details: unit not given here. The following applies: lowest effective concentration; for TLR 8 wt LEC: wild type TLR8 (compounds 74 onward). The essentials:
(§1)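 HEK293 cells transiently co-transfected (48 h, 37 °C) with CMV-TLR7 or TLR8 plasmid (wild type or second-LRR deletion mutant) plus NFκB-luc reporter. Cells exposed to compound for 6 h at 37 °C, 5% CO2; luciferase read-out. LEC from quadruplicate dose-response curves: concentration giving effect at least two fold above assay standard deviation.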

The target of assay [2] is T2, human TLR7 (wild type sequence) (Homo sapiens, UniProt Q9NYK1).
T2 construct: expressed in transfected cells; host or cells: HEK293
T2 sequence (Q9NYK1 27-1049): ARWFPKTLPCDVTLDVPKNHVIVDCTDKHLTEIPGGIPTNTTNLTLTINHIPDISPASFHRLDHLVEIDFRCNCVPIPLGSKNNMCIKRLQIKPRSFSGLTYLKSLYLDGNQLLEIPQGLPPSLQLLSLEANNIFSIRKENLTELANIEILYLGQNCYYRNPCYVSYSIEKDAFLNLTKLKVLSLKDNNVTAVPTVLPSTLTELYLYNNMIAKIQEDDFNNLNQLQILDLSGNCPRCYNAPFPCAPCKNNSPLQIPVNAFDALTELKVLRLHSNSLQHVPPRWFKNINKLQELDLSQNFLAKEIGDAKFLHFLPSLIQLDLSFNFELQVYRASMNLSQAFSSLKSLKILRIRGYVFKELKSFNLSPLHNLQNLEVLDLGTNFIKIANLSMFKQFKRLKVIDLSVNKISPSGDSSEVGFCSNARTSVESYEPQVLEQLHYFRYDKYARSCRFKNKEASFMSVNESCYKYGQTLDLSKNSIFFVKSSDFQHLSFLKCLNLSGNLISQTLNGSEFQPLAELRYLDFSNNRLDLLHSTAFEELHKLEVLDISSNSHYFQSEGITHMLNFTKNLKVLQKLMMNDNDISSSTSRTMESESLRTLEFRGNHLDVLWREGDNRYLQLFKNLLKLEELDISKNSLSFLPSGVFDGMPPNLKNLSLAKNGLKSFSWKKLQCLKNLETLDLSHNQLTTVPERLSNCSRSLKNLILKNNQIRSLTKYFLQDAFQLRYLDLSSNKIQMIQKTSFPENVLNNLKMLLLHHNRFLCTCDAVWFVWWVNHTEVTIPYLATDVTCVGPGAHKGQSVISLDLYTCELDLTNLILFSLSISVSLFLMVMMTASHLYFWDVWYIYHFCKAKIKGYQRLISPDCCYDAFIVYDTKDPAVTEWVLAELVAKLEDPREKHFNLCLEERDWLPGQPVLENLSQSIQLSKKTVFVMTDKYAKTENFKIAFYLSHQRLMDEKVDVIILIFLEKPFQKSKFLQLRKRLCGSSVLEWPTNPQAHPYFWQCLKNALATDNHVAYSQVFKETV
Nature of the assay: TLR7 cellular NFκB-luc reporter assay, wild type TLR7. It is filed as cell-based. Details: unit not given here. The following applies: lowest effective concentration; for TLR7-wt_LEC: wild type TLR7; for TLR 7 wt LEC: wild type TLR7 (compounds 74 onward). An outline of the steps: as §1

For assay [3], the system named is human TLR7 mutant sequence comprising a deletion in the second leucine-rich repeat. Nature of the assay: TLR7 cellular NFκB-luc reporter assay, mutant TLR7 with deletion in the second leucine-rich repeat. It is filed as cell-based. Details: unit not given here. The following applies: lowest effective concentration. How it is done: The ability of compounds to activate human TLR7 and/or TLR8 was assessed in a cellular reporter assay using HEK293 cells transiently transfected with a TLR7 or TLR8 expression vector and NFκB-luc reporter construct. In one instance the TLR expression construct expresses the respective wild type sequence or a mutant sequence comprising a deletion in the second leucine-rich repeat of the TLR.
Briefly, HEK293 cells were grown in culture medium (DMEM supplemented with 10% FCS and 2 mM Glutamine). For transfection of cells in 10 cm dishes, cells were detached with Trypsin-EDTA, transfected with a mix of CMV-TLR7 or TLR8 plasmid (750 ng), NFκB-luc plasmid (375 ng) and a transfection reagent and incubated for 48 hours at 37° C. in a humidified 5% CO2 atmosphere. […] Thirty microliters of cells were then dispensed into each well in 384-well plates, where 10 μL of compound in 4% DMSO was already present. Following 6 hours incubation at 37° C., 5% CO2, the luciferase activity was determined by adding 15 μl of Steady Lite Plus substrate (Perkin Elmer) to each well and readout performed on a ViewLux ultraHTS microplate imager (Perkin Elmer). Dose response curves were generated from measurements performed in quadruplicates.
On the technique in general: A reporter such as luciferase makes a cellular process visible.

The subject of assay [4] is HCV replicon in Huh-7 luc/neo cells. Nature of the assay: Suppression of HCV replicon replication by conditioned media from compound-treated PBMC. The format is cell-based, HCV type 1 b. The following applies: Hepatitis C virus; conditioned media from compound-treated PBMC on Huh-7 luc/neo replicon cells (compounds 74 onward); read-out: PBMC HUH-7 EC50. An outline of the steps:
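Human PBMC (≥2 donors, RPMI + 10% human AB serum, 2×10^5 cells/well) incubated overnight with compounds; supernatant transferred onto Huh-7 luc/neo HCV 1b replicon cells. After 24 h, replication read as luciferase activity. Recombinant interferon α-2a served as standard.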
(In antiviral work, replicon cells carry a viral genome segment that copies itself.)

One may read the pEC50 as the EC50 on a negative log10 scale, so that one unit is a factor of ten.

Take `CCCCNc1nc(N)ncc1OCC1(C)COC1` [Compound 206]: the TLR8-wt_LEC in assay [1] is over 23.81. The compound further returned a TLR7-wt_LEC in assay [2] of over 25. Besides, the TLR7-dIRR2_LEC in assay [3] came out at 9.450.
The matching figures for `CCCC[C@@H](CO)Nc1nc(N)ncc1OCCOC` [Compound 197]: 0.767, 2.650 and 0.624.
The compound `CCCC[C@@H](CO)Nc1nc(N)ncc1OCCCc1ccc(OC)cc1` [Compound 201] returned a TLR8-wt_LEC in assay [1] of 0.758. In assay [2], this compound showed a TLR7-wt_LEC of 0.566. In assay [3], this compound registered a TLR7-dIRR2_LEC of 0.647.
The compound `CCCCNc1nc(N)ncc1OCc1cn2ccncc2n1` [Compound 211] registered a TLR8-wt_LEC in assay [1] of 0.097. Further, the TLR7-wt_LEC in assay [2] was determined as 0.208. The compound also came in with a TLR7-dIRR2_LEC in assay [3] of 1.040.
The matching figures for `CCCC[C@@H](CO)Nc1nc(N)ncc1OCc1ccc2ccccc2n1` [Compound 198]: 0.089, 0.076 and 0.511.
The matching figures for `CCC[C@@H](CO)Nc1nc(N)ncc1OCCCc1ccc2c(c1)OCO2` [Compound 204]: 0.493, 0.791 and 0.791.
For `CCCCNc1nc(N)ncc1OCc1cn2ccccc2n1` [Compound 209] the same measures were 0.076, 0.074 and 0.667.
`CCC[C@@H](CO)Nc1nc(N)ncc1OCCOC` [Compound 196] gave a TLR8-wt_LEC in assay [1] of 0.687. Moreover, the TLR7-wt_LEC in assay [2] worked out at 1.900. The same compound showed a TLR7-dIRR2_LEC in assay [3] of 0.469.
The matching figures for `CCC[C@H](C)Nc1nc(N)ncc1OCc1nccc2ccccc12` [Compound 212]: 0.005, 0.007 and 0.148.
Consider `C=CC[C@H](CCCC)Nc1nc(N)ncc1OC` [Compound 292], for which, in assay [2], the TLR7-wt_LEC stood at 0.913. In assay [3], this compound gave a TLR7-dIRR2_LEC of 3.082.
Compound `CCCC[C@@H](CO)Nc1nc(N)ncc1OCc1cccc(C)n1` [Compound 203] came in with a TLR8-wt_LEC in assay [1] of 0.054. Moreover, in assay [2], the TLR7-wt_LEC is 0.124. For the same compound, in assay [3], the TLR7-dIRR2_LEC came to 0.160.
As for `CCCC[C@@H](CCO)Nc1nc(N)ncc1OCc1nccc2ccccc12` [Compound 208], the TLR7-wt_LEC in assay [2] was 0.001. In addition, the TLR7-dIRR2_LEC in assay [3] came out at 0.093.
Regarding `CCC[C@@H](CCO)Nc1nc(N)ncc1OCc1cn2ccccc2n1` [Compound 205], the TLR8-wt_LEC in assay [1] amounted to 0.047. For the same compound, the TLR7-wt_LEC in assay [2] is 0.369. Besides, the TLR7-dIRR2_LEC in assay [3] was determined as 1.110.
In turn, `CCC[C@@H](CO)Nc1nc(N)ncc1OCc1cccc(C)n1` [Compound 202] registered a TLR8-wt_LEC in assay [1] of 0.049. Besides, the TLR7-wt_LEC in assay [2] came to 0.164. Besides, the TLR7-dIRR2_LEC in assay [3] is 0.089.
For `CCCCNc1nc(N)ncc1OCc1ccc(C#N)cc1` [Compound 210] the same measures were 0.237, 0.686 and 0.896.
In the case of `CCC[C@@H](CO)Nc1nc(N)ncc1OCCCc1ccc(OC)cc1` [Compound 200], in assay [1], the TLR8-wt_LEC is 0.200. The compound also displayed a TLR7-wt_LEC in assay [2] of 0.253. The compound also registered a TLR7-dIRR2_LEC in assay [3] of 0.181.
On to `CCC[C@@H](CCO)Nc1nc(N)ncc1OCc1ncc(C)c(OC)c1C` [Compound 187], for which the negative-log EC50 (pEC50) in assay [4] was 7.66. Moreover, the “TLR 8 wt LEC” value in assay [1] is listed as 0.178. Also, in assay [2], the “TLR 7 wt LEC” value is listed as 0.074.
For `CCCCNc1nc(N)ncc1OCc1nn(C)c2cc(OC)c(OC)cc12` [Compound 183] the same measures were 7.64, 1.580 and 0.056.
As for `CCCC[C@@H](CCO)Nc1nc(N)ncc1OCc1ncc(C)c(OC)c1C` [Compound 75], the negative logarithm of the EC50 (pEC50) in assay [4] is 8.15. The “TLR 8 wt LEC” value in assay [1] amounted to 0.218. The “TLR 7 wt LEC” value in assay [2] is 0.023.
The matching figures for `CCCCNc1nc(N)ncc1OCCCc1ccc(Cl)cc1Cl` [Compound 152]: 5.47, over 25 and 5.410.
Turning to `CCCCNc1nc(N)ncc1OCCOc1ccnc2ccccc12` [Compound 128], the pEC50 in assay [4] was 6.55. Also, the “TLR 8 wt LEC” value in assay [1] was found to be 3.740. Further, in assay [2], the “TLR 7 wt LEC” value amounted to 2.430.
The matching figures for `CCCCNc1nc(N)ncc1OCCCc1ccc(F)cc1F` [Compound 107]: 5.80, 3.940 and 2.460.
For `CCCCNc1nc(N)ncc1OCCOc1ccc(C(F)(F)F)cc1` [Compound 135] the same measures were 5.50, 1.970 and 3.230.
In the case of `CCCCCC(C)Nc1nc(N)ncc1OCc1ccc2ccccc2n1` (stereo not shown) [Compound 189], in assay [4], the negative logarithm of the EC50 (pEC50) was 4.76. In addition, the “TLR 8 wt LEC” value in assay [1] is on record as over 25. In assay [2], the “TLR 7 wt LEC” value was 11.990.
Turning to `CCCCNc1nc(N)ncc1OCCC(c1ccccc1)c1ccccc1` [Compound 167], in assay [4], the pEC50 is 6.12. Further, the “TLR 8 wt LEC” value in assay [1] is reported as over 25. In assay [2], the “TLR 7 wt LEC” value came out at 1.200.
`CCCC[C@@H](CCO)Nc1nc(N)ncc1OCc1cn2ccccc2n1` [Compound 207]: the TLR8-wt_LEC in assay [1] was determined as 0.063. In assay [2], this compound displayed a TLR7-wt_LEC of 0.177. The compound further showed a TLR7-dIRR2_LEC in assay [3] of 1.450.
